# Experimental data from patent US20020004518A1, “Method of treating disorders related to protease-activated receptors-induced cell activation” (priority 2000, published 2002).
# Columns and labels:
# [1] = system: platelet activating factors other than PARs; assay: Effect on platelet activating factors other than PARs; format: cell-based; details: selectivity versus other platelet activators
# PARs = assay: Inhibition of platelet aggregation induced by PARs (thrombin-triggered, turbidimetric); format: cell-based
# Procedure: A suitable in vitro inhibition assay can be used to preliminarily evaluate a fused pyrazolyl compound's ability to inhibit cell activation induced by PARs, which are pre-activated by thrombin. For example, a platelet suspension in Tyrode's solution can be prepared and incubated with a compound to be tested, thrombin added to trigger platelet aggregation, and the aggregation measured turbidimetrically with a light-transmission aggremometer. In vivo screening can be performed by following procedures well known in the art.
# In vitro inhibitory activity of the fused pyrazolyl compounds was preliminarily evaluated by the following method: A platelet suspension in a Tyrode's solution was prepared according to a procedure described by Wu et al., Br. J Pharm., 1995, 116: 1973-1978. The Tyrode's solution had the following composition (mM): NaCl (136.8), KCl (2.8), NaHCO3 (11.9), MgCl2 (1.1), NaH2PO4 (0.33), CaCl2 (1.0), and glucose (11.2). The platelet number in the platelet suspension was adjusted to 4.5×10^8 platelets/mL with the aid of a Coulter Counter (Model ZM). […] Platelet aggregation was measured turbidimetrically with a light-transmission aggremometer. The extent of platelet aggregation was determined at 5 minutes after the addition of thrombin. The percentage of aggregation was calculated by the method described in Teng et al., Biochem. Biophys. […]
SMILES,melting point,effect on platelet activating factors other than PARs [1],"activity relative to several other tested compounds, e.g. 1-benzyl-3-(4′-ethoxycarbonyl)phenyl-indazole (PARs; thrombin-induced platelet aggregation, fold versus other tested compounds)","inhibitory activity on platelet aggregation (PARs; platelet suspension in Tyrode's solution, 3 min preincubation at 37° C., thrombin added, aggregation read at 5 minutes)"
"CCOC(=O)c1cccc(-c2nn(Cc3ccccc3)c3ccccc23)c1 [Example 19, 1-benzyl-3-(3′-ethoxycarbonylphenyl)indazole]",85 to 86 °C,little or no effect,at least 10 times,–
"CCN(CC)Cc1ccc(-c2nn(Cc3ccccc3)c3ccccc23)o1 [Example 17, 1-benzyl-3-(5′-diethylaminomethyl-2′-furyl)indazole]",–,–,–,much higher activity

# Second part, led by results:
melting point,SMILES,effect on platelet activating factors other than PARs [1],"activity relative to several other tested compounds, e.g. 1-benzyl-3-(4′-ethoxycarbonyl)phenyl-indazole (PARs; thrombin-induced platelet aggregation, fold versus other tested compounds)","inhibitory activity on platelet aggregation (PARs; platelet suspension in Tyrode's solution, 3 min preincubation at 37° C., thrombin added, aggregation read at 5 minutes)"
110 to 112 °C,"OCc1ccc(-c2nn(Cc3ccccc3)c3ccccc23)cc1 [Example 22, 1-benzyl-3-(4′-hydroxymethylphenyl)indazole]",–,–,–
190 to 192 °C,"O=C(O)c1cccc(-c2nn(Cc3ccccc3)c3ccccc23)c1 [Example 21, 1-benzyl-3-(3′-hydroxycarbonylphenyl)indazole]",–,–,–
205 to 207 °C,"O=C(O)c1ccc(-c2nn(Cc3ccccc3)c3ccccc23)cc1 [Example 20, 1-benzyl-3-(4′-hydroxycarbonylphenyl)indazole]",–,–,–
